Target: T1, SARM1 (50-724) (Homo sapiens, UniProt Q6SZW1)
T1 construct: Purified SARM1 (50-724) with a final concentration of 2 nM
T1 sequence (Q6SZW1 50-724): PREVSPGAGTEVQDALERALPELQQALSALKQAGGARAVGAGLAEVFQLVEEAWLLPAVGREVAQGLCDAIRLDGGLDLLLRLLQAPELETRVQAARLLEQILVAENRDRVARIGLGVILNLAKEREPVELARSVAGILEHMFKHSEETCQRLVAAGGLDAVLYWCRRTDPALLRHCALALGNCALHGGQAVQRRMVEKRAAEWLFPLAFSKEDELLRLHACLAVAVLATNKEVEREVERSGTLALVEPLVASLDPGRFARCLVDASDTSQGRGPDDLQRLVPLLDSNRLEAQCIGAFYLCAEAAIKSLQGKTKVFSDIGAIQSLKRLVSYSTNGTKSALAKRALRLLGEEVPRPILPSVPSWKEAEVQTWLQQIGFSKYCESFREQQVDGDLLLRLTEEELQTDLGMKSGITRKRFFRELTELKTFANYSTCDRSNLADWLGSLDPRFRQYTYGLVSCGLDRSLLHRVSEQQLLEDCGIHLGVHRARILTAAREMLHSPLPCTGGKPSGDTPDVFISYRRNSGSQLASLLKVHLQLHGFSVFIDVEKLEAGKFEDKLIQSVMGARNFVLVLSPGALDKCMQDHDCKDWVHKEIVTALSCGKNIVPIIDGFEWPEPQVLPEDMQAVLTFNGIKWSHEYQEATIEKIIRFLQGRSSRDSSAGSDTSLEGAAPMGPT
Assay: SARM1 (50-724) enzymatic assay (NMN-activated NAD+ hydrolysis, LC-MS/MS readout)
Type: biochemical
Settings: purified SARM1 (50-724) 2 nM, 200 μM NMN activator, 100 μM NAD+ substrate, 1 h at room temperature, read-out: IC50 (SARM1 inhibitory activity)
Method: Example II. SARM1 (50-724) Enzymatic Assay
An enzymatic assay was performed in a 384-well plate using Dulbecco's phosphate-buffered saline (PBS) as the reaction buffer. Purified SARM1 (50-724) with a final concentration of 2 nM was pre-incubated with a test compound at 1% DMSO final assay concentration for 15 min at room temperature. The reaction was initiated by adding a mixture of 200 μM nicotinamide mononucleotide (NMN) as activator and 100 μM NAD^+ as substrate. After 1 h of incubation at room temperature, the reaction was terminated with 10 times volume of 70% acetonitrile, then centrifuged at 3800 rpm for 10 min. The samples were analyzed using LC-MS/MS after diluted to a proper concentration by 10 mM ammonium acetate (pH 9.75).
ND means “not determined.”

Compound | IC50 [nM]
Cc1cccc2[nH]c(C(=O)N(C)C3CCCC3)c(CO)c12 [Compound 21, N-cyclopenty1-3-(hydroxymethyl)-N,4-dimethyl-1H-indole-2-carboxamide] | ≥ 1000
Cc1ccc2[nH]c(C(=O)N(C)C3CCCC(C)C3C)c(CO)c2c1 (stereo not shown) [Compound 35, N-(2,3-dimethylcyclohexyl)-3-(hydroxymethyl)-N,5-dimethyl-1H-indole-2-carboxamide] | ≥ 1000
Cc1ccc2[nH]c(C(=O)N(C)c3cccc(C(F)(F)F)c3)c(CO)c2c1 [Compound 10, 3-(hydroxymethyl)-N,5-dimethyl-N-(3-(trifluoromethyl)phenyl)-1H-indole-2-carboxamide] | ≥ 1000
Cc1ccc2[nH]c(C(=O)N(C)C3CCCC3)nc2n1 [Compound 52, N-cyclopentyl-N,5-dimethyl-1H-imidazo[4,5-b]pyridine-2-carboxamide] | ≥ 1000
CN(C(=O)c1cc2ccccc2[nH]1)C1CCCC1 [Compound 54, N-cyclopentyl-N-methyl-1H-indole-2-carboxamide] | ≥ 1000
Cc1ccc2[nH]c(C(=O)N(C)c3cccc(Cl)c3)c(CO)c2c1 [Compound 24, N-(3-chlorophenyl)-3-(hydroxymethyl)-N,5-dimethyl-1H-indole-2-carboxamide] | ≥ 1000
Cc1ccc2[nH]c(C(=O)N(C)c3cccc(Cl)c3Cl)c(C#N)c2c1 [Compound 69, 3-cyano-N-(2,3-dichlorophenyl)-N,5-dimethyl-1H-indole-2-carboxamide] | ≤ 100
CN(C(=O)c1[nH]c2ccc(F)cc2c1CO)C1CCCC1 [Compound 32, N-cyclopentyl-5-fluoro-3-(hydroxymethyl)-N-methyl-1H-indole-2-carboxamide] | ≥ 1000
Cc1ccc2[nH]c(C(=O)N(C)c3ccc(C#N)cc3Cl)c(CO)c2c1 [Compound 9, N-(2-chloro-4-cyanophenyl)-3-(hydroxymethyl)-N,5-dimethyl-1H-indole-2-carboxamide] | ≥ 1000
COc1cc2[nH]c(C(=O)N(C)C3CCCC3)c(CO)c2cc1OC [Compound 30, N-cyclopentyl-3-(hydroxymethyl)-5,6-dimethoxy-N-methyl-1H-indole-2-carboxamide] | ≥ 1000
Cc1ccc2[nH]c(C(=O)N(C)c3c(Cl)cccc3Cl)c(CO)c2c1 [Compound 5, N-(2,6-dichlorophenyl)-3-(hydroxymethyl)-N,5-dimethyl-1H-indole-2-carboxamide] | 101 to 500
CN(C(=O)c1[nH]ccc1CO)C1CCCC1 [Compound 45, N-cyclopentyl-3-(hydroxymethyl)-N-mcthyl-1H-pyrrole-2-carboxamide] | ≥ 1000
Cc1ccc2[nH]c(C(=O)N(C)C3CCCC3)nc2c1 [Compound 46, N-cyclopentyl-N,5-dimethyl-1H-benzo[d]imidazole-2-carboxamide] | 101 to 500
CN(C(=O)c1[nH]c2cc(Cl)ccc2c1CO)C1CCCC1 [Compound 41, 6-chloro-N-cyclopentyl-3-(hydroxymethyl)-N-methyl-1H-indole-2-carboxamide] | ≥ 1000
Cc1ccc2c(CO)c(C(=O)N(C)C3CCCC3)n(CC(N)=O)c2c1 [Compound 23, 1-(2-amino-2-oxoethyl)-N-cyclopentyl-3-(hydroxymethyl)-N,6-dimethyl-1H-indole-2-carboxamide] | ≥ 1000

Results, then the molecule that gave them:

IC50 [nM] | Compound
101 to 500 | O=C(c1nc2cc(C(F)(F)F)c(Cl)cc2[nH]1)N(CCO)c1cccc(Cl)c1Cl [Compound 163]
101 to 500 | O=C(c1nc2cc(C(F)(F)F)ccc2[nH]1)N(CCN1CCOCC1)c1cccc(F)c1Cl [Compound 214, N-(2-chloro-3-fluorophenyl)-N-(2-morpholinoethyl)-5-(trifluoromethyl)-1H-benzo[d]imidazole-2-carboxamide]
≤ 100 | O=C(c1nc2cc(C(F)(F)F)ccc2[nH]1)N(CC1CC(O)C1)c1cccc(Cl)c1Cl (stereo not shown) [Compound 177, N-(2,3-dichlorophenyl)-N-((3-hydroxycyclobutyl)methyl)-5-(trifluoromethyl)-1H-benzo[d]imidazole-2-carboxamide]
101 to 500 | Cc1ccc2[nH]c(C(=O)N(C)C3CCCC3)c(CNc3cc(C)[nH]n3)c2c1 [Compound 83, N-cyclopentyl-N,5-dimethyl-3-(((5-methyl-1H-pyrazol-3-yl)amino)methyl)-1H-indole-2-carboxamide]
101 to 500 | Cc1c(Cl)ccnc1N(CCO)C(=O)c1nc2cc(C(F)(F)F)ccc2[nH]1 [Compound 145, N-(4-chloro-3-methylpyridin-2-yl)-N-(2-hydroxyethyl)-5-(trifluoromethyl)-1H-benzo[d]imidazole-2-carboxamide]
101 to 500 | O=C(c1nc2cc(C(F)(F)F)ccc2[nH]1)N(CC1CNC1)c1cccc(Cl)c1Cl [Compound 114, N-(azetidin-3-ylmethyl)-N-(2,3-dichlorophenyl)-5-(trifluoromethyl)-1H-benzo[d]imidazole-2-carboxamide]
≤ 100 | O=C(c1nc2cc(C(F)(F)F)cc(F)c2[nH]1)N(c1cccc(F)c1Cl)C1CCS(=O)(=O)C1 (racemic) [Compound 192]
501 to 1000 | Cc1cccc(N(CCO)C(=O)c2nc3cc(C(F)(F)F)ccc3[nH]2)c1F [Compound 172, N-(2-fluoro-3-methylphenyl)-N-(2-hydroxyethyl)-5-(trifluoromethyl)-1H-benzo[d]imidazole-2-carboxamide]
≤ 100 | O=C(c1nc2cc(C(F)(F)F)ccc2[nH]1)N(CCN1CC(F)(F)C1)c1cccc(Cl)c1Cl [Compound 116, N-(2,3-dichlorophenyl)-N-(2-(3,3-difluoroazetidin-1-yl)ethyl)-5-(trifluoromethyl)-1H-benzo[d]imidazole-2-carboxamide]
101 to 500 | O=C(c1nc2cc(-c3ccn[nH]3)ccc2[nH]1)N(CC1COC1)c1cccc(Cl)c1Cl [Compound 119]
101 to 500 | N#Cc1cc(Cl)c(Cl)c(N(CCO)C(=O)c2nc3cc(C(F)(F)F)ccc3[nH]2)c1 [Compound 109, N-(2,3-dichloro-5-cyanophenyl)-N-(2-hydroxyethyl)-5-(trifluoromethyl)-1H-benzo[d]imidazole-2-carboxamide]
≤ 100 | CN(C(=O)c1nc2cc(C(F)(F)F)ccc2[nH]1)c1cc(F)cc(Cl)c1Cl [Compound 120, N-(2,3-dichloro-5-fluorophenyl)-N-methyl-5-(trifluoromethyl)-1H-benzo[d]imidazole-2-carboxamido]
101 to 500 | Cc1c(Cl)cncc1N(CC1(F)COC1)C(=O)c1nc2cc(C(F)(F)F)ccc2[nH]1 [Compound 184, N-(5-chloro-4-methylpyridin-3-yl)-N-((3-fluorooxetan-3-yl)methyl)-5-(trifluoromethyl)-1H-benzo[d]imidazole-2-carboxamide]
≤ 100 | Cc1ccc2[nH]c(C(=O)N(CCO)c3cccc(Cl)c3Cl)c(C#N)c2c1 [Compound 71, 3-cyano-N-(2,3-dichlorophenyl)-N-(2-hydroxyethyl)-5-methyl-1H-indole-2-carboxamide]
101 to 500 | Cc1cc(-c2ccc3[nH]c(C(=O)N(CCO)c4cccc(Cl)c4Cl)nc3c2)sn1 [Compound 144]
≤ 100 | [2H]C([2H])([2H])N(C(=O)c1nc2cc(C(F)(F)F)ccc2[nH]1)c1cncc(Cl)c1C [Compound 166, N-(5-chloro-4-methylpyridin-3-yl)-N-(methyl-d3)-5-(trifluoromethyl)-1H-benzo[d]imidazole-2-carboxamido]
